# Data published in ChEMBL document CHEMBL3407349, “The discovery of Polo-like kinase 4 inhibitors: identification of (1R,2S).2-(3-((E).4-(((cis).2,6-dimethylmorpholino)methyl)styryl). 1H.indazol-6-yl)-5'-methoxyspiro[cyclopropane-1,3'-indolin]-2'-one (CFI-400945) as a potent, orally active antitumor agent” (J Med Chem, 2015).
# Columns and labels:
# MDA-MB-468 [1] = assay: Growth inhibition of human MDA-MB-468 cells after 5 days by SRB assay; assay type: functional
# MCF7 = assay: Growth inhibition of human MCF7 cells after 5 days by SRB assay; assay type: functional
# HCC1954 = assay: Growth inhibition of human HCC1954 cells after 5 days by SRB assay; assay type: functional
# MDA-MB-231 = assay: Growth inhibition of human MDA-MB-231 cells after 5 days by SRB assay; assay type: functional
# [2] = Growth inhibition of human HMEC cells after 5 days by SRB assay; assay type: cell-based; settings: HMEC cells
# Cytochrome P450 1A2 = target: T1, Cytochrome P450 1A2 (Homo sapiens, UniProt P05177); assay: Inhibition of CYP1A2 (unknown origin) by fluorescence assay; assay type: ADME
# T1 sequence (P05177 whole entry): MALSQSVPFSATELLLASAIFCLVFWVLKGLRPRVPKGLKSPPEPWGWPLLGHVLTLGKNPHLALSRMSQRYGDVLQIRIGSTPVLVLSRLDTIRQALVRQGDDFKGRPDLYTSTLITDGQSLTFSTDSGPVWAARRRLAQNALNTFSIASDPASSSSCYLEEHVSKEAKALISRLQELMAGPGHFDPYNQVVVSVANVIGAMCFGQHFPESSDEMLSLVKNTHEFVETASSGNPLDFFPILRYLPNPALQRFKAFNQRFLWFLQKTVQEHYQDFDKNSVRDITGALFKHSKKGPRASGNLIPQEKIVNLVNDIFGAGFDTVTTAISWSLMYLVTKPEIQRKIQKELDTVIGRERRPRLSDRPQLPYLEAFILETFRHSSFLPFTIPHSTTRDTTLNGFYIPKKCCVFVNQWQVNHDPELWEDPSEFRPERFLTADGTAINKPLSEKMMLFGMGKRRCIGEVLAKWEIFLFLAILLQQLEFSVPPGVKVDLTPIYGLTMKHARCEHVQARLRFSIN
# Cytochrome P450 2D6 = Cytochrome P450 2D6 (Homo sapiens, UniProt P10635); assay: Inhibition of CYP2D6 (unknown origin) by fluorescence assay; assay type: ADME
# Cytochrome P450 2C9 = Cytochrome P450 2C9 (Homo sapiens, UniProt P11712); assay: Inhibition of CYP2C9 (unknown origin) by fluorescence assay
# Cytochrome P450 2C19 = Cytochrome P450 2C19 (Homo sapiens, UniProt P33261); assay: Inhibition of CYP2C19 (unknown origin) by fluorescence assay
# Cytochrome P450 3A4 [3] = target: T2, Cytochrome P450 3A4 (Homo sapiens, UniProt P08684); assay: Inhibition of CYP3A4 (unknown origin) using DBF as substrate by fluorescence assay
# Cytochrome P450 3A4 [4] = target: T2, Cytochrome P450 3A4; assay: Inhibition of CYP3A4 (unknown origin) using BFC as substrate by fluorescence assay
# [5] = Half life in mouse liver microsomes; settings: liver microsomes
# [6] = Half life in rat liver microsomes; settings: liver microsomes
# [7] = Half life in dog liver microsomes; settings: liver microsomes
# [8] = Half life in human liver microsomes; settings: liver microsomes
# [9] = Cmax in athymic CD1 nude mouse at 25 mg/kg, po by LC/MS/MS analysis; assay type: ADME, organism-based; parameters: dose 25 mg/kg, route oral; settings: in vivo
# [10] = AUC in athymic CD1 nude mouse at 25 mg/kg, po by LC/MS/MS analysis; assay type: ADME, organism-based; parameters: dose 25 mg/kg, route oral; settings: plasma
# Rattus norvegicus = assay: Clearance in Sprague-Dawley rat at 1 mg/kg, iv; assay type: ADME, organism-based; parameters: dose 1 mg/kg, route intravenous; settings: in vivo
# [11] = Half life in Sprague-Dawley rat at 1 mg/kg, iv; assay type: ADME, organism-based; parameters: dose 1 mg/kg, route intravenous; settings: in vivo
# [12] = AUC(infinity) in Sprague-Dawley rat at 1 mg/kg, iv; assay type: ADME, organism-based; parameters: time infinity, dose 1 mg/kg, route intravenous; settings: plasma
# [13] = AUC(infinity) in Sprague-Dawley rat at 5 mg/kg, po; assay type: ADME, organism-based; parameters: dose 5 mg/kg, route oral, time infinity; settings: plasma
# [14] = Oral bioavailability in Sprague-Dawley rat at 5 mg/kg; assay type: ADME, organism-based; settings: in vivo
# Canis familiaris = assay: Clearance in beagle dog at 1 mg/kg, iv; assay type: ADME, organism-based, Canis lupus familiaris; parameters: dose 1 mg/kg, route intravenous; settings: in vivo
# [15] = Half life in beagle dog at 1 mg/kg, iv; assay type: ADME, organism-based, Canis lupus familiaris; parameters: dose 1 mg/kg, route intravenous; settings: in vivo
# [16] = AUC(infinity) in beagle dog at 1 mg/kg, iv; assay type: ADME, organism-based, Canis lupus familiaris; parameters: time infinity, dose 1 mg/kg, route intravenous; settings: plasma
# [17] = AUC(infinity) in beagle dog at 5 mg/kg, po; assay type: ADME, organism-based, Canis lupus familiaris; parameters: time infinity, dose 5 mg/kg, route oral; settings: plasma
# [18] = Oral bioavailability in beagle dog at 5 mg/kg; assay type: ADME, organism-based, Canis lupus familiaris; settings: in vivo
# [19] = Growth inhibition of human SKBR3 cells after 5 days by SRB assay; assay type: functional; settings: SK-BR-3, 120 h
# [20] = Growth inhibition of human CAL51 cells after 5 days by SRB assay; assay type: functional; settings: CAL-51, 120 h
# [21] = Growth inhibition of human BT20 cells after 5 days by SRB assay; assay type: functional; settings: BT-20, 120 h
# A549 [22] = assay: Growth inhibition of human A549 cells after 5 days by SRB assay; assay type: functional; settings: A549, 120 h
# [23] = Growth inhibition of human OVCAR3 cells after 5 days by SRB assay; assay type: functional; settings: OVCAR-3, 120 h
# SW-620 = assay: Growth inhibition of human SW620 cells after 5 days by SRB assay; assay type: functional; settings: SW-620, 120 h
# [24] = Growth inhibition of human COLO205 cells after 5 days by SRB assay; assay type: functional; settings: COLO 205, 120 h
# [25] = Growth inhibition of human HCT116 cells after 5 days by SRB assay; assay type: functional; settings: HCT-116, 120 h
# Mus musculus [26] = assay: Toxicity in CB-17 SCID mouse xenografted with human MDA-MB-468 cells assessed as mortality at 3 to 9.4 mg/kg, po qd administered for 21 days; assay type: organism-based; parameters: dose 3-9.4 mg/kg, route oral; settings: in vivo, 504 h
# Mus musculus [27] = assay: Toxicity in CB-17 SCID mouse xenografted with human MDA-MB-468 cells assessed as loss in body weight at 3 to 9.4 mg/kg, po qd administered for 21 days relative to control; assay type: organism-based; parameters: dose 3-9.4 mg/kg, route oral; settings: in vivo, 504 h
# MDA-MB-468 [28] = assay: Antitumor activity against human MDA-MB-468 cells xenografted in CB-17 SCID mouse assessed as tumor growth inhibition at 3 mg/kg, po qd administered for 21 days; assay type: functional; settings: MDA-MB-468, 504 h, read-out: TGI
# MDA-MB-468 [29] = assay: Antitumor activity against human MDA-MB-468 cells xenografted in CB-17 SCID mouse assessed as tumor growth inhibition at 9.4 mg/kg, po qd administered for 21 days; assay type: functional; settings: MDA-MB-468, 504 h, read-out: TGI
# [30] = Antitumor activity against human SW620 cells xenografted in CB-17 SCID mouse assessed as tumor growth inhibition at 3 mg/kg, po qd administered for 21 days; assay type: functional; settings: SW-620, 504 h, read-out: TGI
# [31] = Antitumor activity against human SW620 cells xenografted in CB-17 SCID mouse assessed as tumor growth inhibition at 9.4 mg/kg, po qd administered for 21 days; assay type: functional; settings: SW-620, 504 h, read-out: TGI
# A549 [32] = assay: Antitumor activity against human A549 cells xenografted in CB-17 SCID mouse assessed as tumor growth inhibition at 3 mg/kg, po qd administered for 21 days; assay type: functional; settings: A549, 504 h, read-out: TGI
# A549 [33] = assay: Antitumor activity against human A549 cells xenografted in CB-17 SCID mouse assessed as tumor growth inhibition at 9.4 mg/kg, po qd administered for 21 days; assay type: functional; settings: A549, 504 h, read-out: TGI
# [34] = Toxicity in po dosed athymic CD-1 nude mouse xenografted with human HCT116 cells administered qd 1-on/3-off schedule up to day 21; assay type: organism-based, HCT-116; settings: CD-1 athymic nude, in vivo
# [35] = Antitumor activity against human HCT116 cells xenografted in athymic CD-1 nude mouse assessed as tumor growth inhibition at MTD, po qd administered 1-on/3-off schedule up to day 21; assay type: functional, HCT-116
# Cytochrome P450 2D6, sequence (P10635 whole entry): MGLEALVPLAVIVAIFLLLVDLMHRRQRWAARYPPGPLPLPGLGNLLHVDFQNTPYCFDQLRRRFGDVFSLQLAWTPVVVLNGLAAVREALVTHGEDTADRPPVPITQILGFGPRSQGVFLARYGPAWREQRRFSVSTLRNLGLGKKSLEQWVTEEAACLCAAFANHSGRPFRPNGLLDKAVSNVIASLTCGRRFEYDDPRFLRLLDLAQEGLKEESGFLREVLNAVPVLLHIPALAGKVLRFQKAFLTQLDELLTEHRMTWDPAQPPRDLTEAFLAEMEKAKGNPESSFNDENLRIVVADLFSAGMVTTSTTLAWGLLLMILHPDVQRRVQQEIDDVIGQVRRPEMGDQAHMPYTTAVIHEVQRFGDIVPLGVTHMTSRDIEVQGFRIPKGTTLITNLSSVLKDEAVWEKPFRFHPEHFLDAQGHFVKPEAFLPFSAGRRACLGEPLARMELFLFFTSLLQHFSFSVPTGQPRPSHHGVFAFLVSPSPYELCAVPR
# T2 sequence (P08684 whole entry): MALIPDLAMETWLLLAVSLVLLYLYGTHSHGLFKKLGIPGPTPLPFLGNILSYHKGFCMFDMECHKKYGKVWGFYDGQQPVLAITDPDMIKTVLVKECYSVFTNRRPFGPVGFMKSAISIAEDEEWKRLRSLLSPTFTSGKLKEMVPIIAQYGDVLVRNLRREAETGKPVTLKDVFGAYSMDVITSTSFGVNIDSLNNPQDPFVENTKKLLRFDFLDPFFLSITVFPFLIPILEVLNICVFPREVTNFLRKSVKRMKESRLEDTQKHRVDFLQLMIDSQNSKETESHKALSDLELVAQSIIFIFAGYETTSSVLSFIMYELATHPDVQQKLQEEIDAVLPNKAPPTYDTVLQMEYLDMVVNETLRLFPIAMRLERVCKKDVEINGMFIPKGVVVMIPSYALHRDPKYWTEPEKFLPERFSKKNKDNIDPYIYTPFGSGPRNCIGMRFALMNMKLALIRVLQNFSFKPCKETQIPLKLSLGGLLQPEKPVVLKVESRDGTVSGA
# Cytochrome P450 2C9, sequence (P11712 whole entry): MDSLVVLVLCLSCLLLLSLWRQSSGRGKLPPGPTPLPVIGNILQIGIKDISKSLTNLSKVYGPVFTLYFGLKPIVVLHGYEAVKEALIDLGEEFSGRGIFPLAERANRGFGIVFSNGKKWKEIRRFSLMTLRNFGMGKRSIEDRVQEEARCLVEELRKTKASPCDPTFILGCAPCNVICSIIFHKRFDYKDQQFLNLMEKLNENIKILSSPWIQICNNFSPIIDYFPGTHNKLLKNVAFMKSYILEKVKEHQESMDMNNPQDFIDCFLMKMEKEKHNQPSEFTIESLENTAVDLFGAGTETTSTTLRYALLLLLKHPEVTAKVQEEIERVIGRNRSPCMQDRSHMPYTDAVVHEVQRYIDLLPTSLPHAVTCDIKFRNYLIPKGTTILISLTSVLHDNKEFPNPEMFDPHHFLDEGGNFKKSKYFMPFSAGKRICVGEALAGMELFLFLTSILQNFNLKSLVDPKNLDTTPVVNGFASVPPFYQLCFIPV
# Cytochrome P450 2C19, sequence (P33261 whole entry): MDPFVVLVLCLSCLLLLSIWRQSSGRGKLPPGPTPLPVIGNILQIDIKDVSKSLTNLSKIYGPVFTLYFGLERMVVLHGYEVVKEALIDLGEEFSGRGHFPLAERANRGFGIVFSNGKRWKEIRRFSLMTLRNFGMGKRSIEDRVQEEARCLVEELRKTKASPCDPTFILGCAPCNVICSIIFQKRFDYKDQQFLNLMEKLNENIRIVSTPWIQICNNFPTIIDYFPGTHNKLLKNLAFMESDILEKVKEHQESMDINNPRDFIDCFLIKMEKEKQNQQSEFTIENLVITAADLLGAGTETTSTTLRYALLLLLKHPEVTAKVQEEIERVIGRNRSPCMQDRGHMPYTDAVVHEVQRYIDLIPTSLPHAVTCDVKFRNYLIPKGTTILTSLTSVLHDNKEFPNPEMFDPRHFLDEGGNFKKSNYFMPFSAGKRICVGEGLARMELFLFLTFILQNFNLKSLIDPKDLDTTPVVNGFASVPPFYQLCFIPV
smiles,measurement,setting,value
COc1ccc2c(c1)[C@]1(C[C@H]1c1ccc3c(/C=C/c4ccc(CN5CCOCC5)cc4)n[nH]c3c1)C(=O)N2,GI50,MDA-MB-468 [1],< 0.0001 µM
same,GI50,MCF7,0.0001 µM
same,GI50,HCC1954,0.25 µM
same,GI50,MDA-MB-231,< 0.001 µM
same,GI50 at 120 h,[2],> 50 µM
same,inhibition (INH),Cytochrome P450 1A2,Not Active
same,inhibition (INH),Cytochrome P450 2D6,Not Active
same,IC50,Cytochrome P450 2C9,0.8 µM
same,IC50,Cytochrome P450 2C19,1.2 µM
same,IC50,Cytochrome P450 3A4 [3],6.4 µM
same,IC50,Cytochrome P450 3A4 [4],2.4 µM
same,half-life,[5],12 min
same,half-life,[6],8.3 min
same,half-life,[7],9.4 min
same,half-life,[8],41 min
same,Cmax,[9],3500 ng/mL
same,AUC,[10],9500 ng·h/mL
same,clearance,Rattus norvegicus,66.7 mL/min/kg
same,half-life,[11],66 min
same,AUC(0-inf),[12],250 ng·h/mL
same,AUC(0-inf),[13],272 ng·h/mL
same,bioavailability,[14],22%
same,clearance,Canis familiaris,41.7 mL/min/kg
same,half-life,[15],52.2 min
same,AUC(0-inf),[16],402 ng·h/mL
same,AUC(0-inf),[17],1420 ng·h/mL
same,bioavailability,[18],71%
C[C@@H]1CN(Cc2ccc(/C=C/c3n[nH]c4cc([C@@H]5C[C@@]56C(=O)Nc5ccccc56)ccc34)cc2)C[C@H](C)O1,GI50,"MDA-MB-468 [1]; Homo sapiens, MDA-MB-468, 120 h",0.01 µM
same,GI50,"MCF7; Homo sapiens, MCF7, 120 h",0.017 µM
same,GI50,"HCC1954; Homo sapiens, HCC1954, 120 h",0.008 µM
same,GI50,"MDA-MB-231; Homo sapiens, MDA-MB-231, 120 h",6.5 µM
same,GI50 at 120 h,[2],8.4 µM
same,inhibition (INH),Cytochrome P450 1A2,Not Active
same,inhibition (INH),Cytochrome P450 2D6,Not Active
same,Cmax,[9],3700 ng/mL
same,AUC,[10],10000 ng·h/mL
same,half-life,[11],234 min
same,AUC(0-inf),[12],1230 ng·h/mL
same,AUC(0-inf),[13],2810 ng·h/mL
same,bioavailability,[14],46%
same,half-life,[15],270 min
same,AUC(0-inf),[16],2050 ng·h/mL
same,AUC(0-inf),[17],4990 ng·h/mL
same,bioavailability,[18],49%
same,GI50,[19],7.2 µM
same,GI50,[20],0.091 µM
same,GI50,[21],0.09 µM
same,GI50,A549 [22],0.009 µM
same,GI50,[23],0.015 µM
same,GI50,SW-620,0.35 µM
same,GI50,[24],0.057 µM
same,GI50,[25],0.008 µM
same,Activity,Mus musculus [26],Non-toxic
same,Activity,Mus musculus [27],> 20%
same,inhibition in vivo at 3 mg/kg,MDA-MB-468 [28],45%
same,inhibition in vivo at 9.4 mg/kg,MDA-MB-468 [29],90%
same,inhibition in vivo at 3 mg/kg,[30],57%
same,inhibition in vivo at 9.4 mg/kg,[31],80%
same,inhibition in vivo at 3 mg/kg,A549 [32],44%
same,inhibition in vivo at 9.4 mg/kg,A549 [33],79%
same,MTD at 21 days,[34],36 mg/kg
same,TGI,[35],78%
